In PMC10247784, “Physiological activation of human and mouse bitter taste receptors by bile acids” (Communications Biology, 2023):
Values joined by “and” are separate entries in the source; they are usually repeats but may differ in a detail not shown here. Equal entries are not always repeated.

Target: T1, human TAS2R1 (Homo sapiens, UniProt Q9NYW7)
T1 construct: expressed in transfected cells; host or cells: HEK293T-Gα16gust44
T1 sequence (Q9NYW7 1-299): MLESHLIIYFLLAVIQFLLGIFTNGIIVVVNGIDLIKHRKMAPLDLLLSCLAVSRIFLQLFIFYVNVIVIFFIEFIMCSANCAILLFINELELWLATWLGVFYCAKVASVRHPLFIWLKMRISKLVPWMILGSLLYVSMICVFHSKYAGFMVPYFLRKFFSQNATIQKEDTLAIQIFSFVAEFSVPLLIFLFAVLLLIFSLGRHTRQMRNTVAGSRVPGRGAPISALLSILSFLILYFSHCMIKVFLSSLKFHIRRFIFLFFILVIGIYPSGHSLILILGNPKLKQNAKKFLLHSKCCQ
Experiment: Calcium imaging assay (FLIPR), HEK293T-Gα16gust44 cells transfected with human TAS2R1
Assay type: cell-based
Description: This set of bile acids was chosen because of their commercial availability in high purities, their diversity within the class of bile acids and their previous detection and quantitation in human blood. Stock solutions were prepared in DMSO.
As basal growth medium for the HEK293T-Gα16gust44 cell line[17],[59] served Dulbecco’s modified eagle medium (DMEM) (Thermo Fisher Scientific, Darmstadt, Germany) supplemented with 10 % fetal bovine serum (Sigma-Aldrich, Steinheim, Germany), 2 mM L-glutamine (Sigma-Aldrich, Steinheim, Germany), 100 units/ml penicillin (Sigma Aldrich, Steinheim, Germany) and 100 µg/ml streptomycin (Sigma Aldrich, Steinheim, Germany). Growth conditions were 37 °C, 5 % CO2 and saturated air-humidity[60].
HEK293T-Gα16gust44 cells were seeded on poly-D-lysine (10 µg/ml) coated 96-well plates to reach a confluence of 40-60 % the next day. For transient transfection 150 ng of plasmid DNA containing the receptor of interest and 0.3 µl lipofectamine 2000 (Thermo Fisher Scientific, Darmstadt, Germany) per well were used and transfection took place according to the manual of lipofectamine 2000. […] The empty vector DNA (mock) was transfected as negative control[14],[41].
Cells were loaded using the calcium-sensitive fluorescent dye Fluo-4-AM (Abcam, Cambridge, Great Britain) in the presence of 2.5 mM probenecid (Sigma-Aldrich, Steinheim, Germany) the day after transfection[13],[41]. 1 h after loading, cells were washed with C1 buffer using a BioTek Cell Washer, incubated in the dark for half an hour and washed again. For automated agonist application and measurement of fluorescence changes, a FLIPR^TETRA device (Molecular Devices, San José, United States) was used. Viability of cells was tested by application of 100 nM Somatostatin 14 (Bachem, Bubendorf, Switzerland)[42].
Measured data were negative control corrected by subtracting the signal of the mock-transfected cells and exported to Microsoft Excel using the FLIPR software ScreenWorks 4.2. In Microsoft Excel software, standardization of maximum fluorescence intensities to the basal fluorescence and normalization to the buffer-only control was done to calculate the relative fluorescence changes (ΔF/F).
Initial screening experiments performed in duplicate wells were confirmed by at least one replication and representative traces were selected for display. All dose-response relationships were determined by three independent experiments (biological replicates) performed in duplicates (technical replicates). Threshold concentrations, defined as lowest substance concentrations leading to statistically significant elevated fluorescence changes in receptor-transfected cells compared with empty vector-transfected cells, were determined using SigmaPlot with Student’s t-test to evaluate statistical significance (p < 0.01).

For `C[C@H](CCC(=O)O)[C@H]1CC[C@H]2[C@@H]3[C@H](O)C[C@@H]4C[C@H](O)CC[C@]4(C)[C@H]3C[C@H](O)[C@]12C` [Cholic Acid, cholic acid], the “Efficacy = maximal amplitude (ΔF/F)” value (TAS2R1, bile acids, mean) was 0.1303, the “Efficacy (maximal amplitude ΔF/F), individual data points” value (TAS2R1, bile acids, single replicates, listed as CA) was 0.1237 and 0.1261 and 0.1411 and the RLU (Time 0 s) was 0 RLU. The RLU (Time 2.015 s) was -18.7915 RLU, the RLU (Time 4.015 s) was -20.7803 RLU and the RLU (Time 6.015 s) was -30.3104 RLU. The RLU (Time 8.015 s) was -41.5185 RLU, the RLU (Time 12.015 s) was -39.0663 RLU and the RLU (Time 14.015 s) was -19.7859 RLU. The RLU (Time 16.015 s) was -20.0825 RLU, the RLU (Time 18.015 s) was -33.1938 RLU and the RLU (Time 18.796 s) was -13.8993 RLU. It also gave an RLU (Time 20.796 s) of -32.113 RLU, an RLU (Time 22.796 s) of 0.5227 RLU and an RLU (Time 24.796 s) of 72.3168 RLU. It also gave an RLU (Time 26.796 s) of 179.01 RLU, an RLU (Time 28.796 s) of 273.224 RLU and an RLU (Time 30.796 s) of 414.499 RLU. For the same compound, the RLU (Time 32.796 s) was 487.46 RLU, the RLU (Time 34.796 s) was 561.258 RLU and the RLU (Time 36.796 s) was 600.729 RLU. It also gave an RLU (Time 38.796 s) of 652.414 RLU, an RLU (Time 40.796 s) of 646.063 RLU and an RLU (Time 42.796 s) of 688.029 RLU. For the same compound, the RLU (Time 44.796 s) was 718.237 RLU, the RLU (Time 46.796 s) was 709.989 RLU and the RLU (Time 48.796 s) was 747.058 RLU. The RLU (Time 50.796 s) was 725.497 RLU, the RLU (Time 52.796 s) was 721.254 RLU and the RLU (Time 54.796 s) was 750.511 RLU. It also gave an RLU (Time 56.796 s) of 763.129 RLU, an RLU (Time 58.796 s) of 754.05 RLU and an RLU (Time 60.796 s) of 736.769 RLU. For the same compound, the RLU (Time 62.796 s) was 752.117 RLU, the RLU (Time 64.796 s) was 729.251 RLU and the RLU (Time 66.796 s) was 754.307 RLU. It also gave an RLU (Time 68.796 s) of 748.849 RLU, an RLU (Time 70.796 s) of 729.014 RLU and an RLU (Time 72.796 s) of 724.252 RLU. For the same compound, the RLU (Time 74.796 s) was 721.996 RLU, the RLU (Time 76.796 s) was 719.984 RLU and the RLU (Time 78.796 s) was 701.138 RLU. For the same compound, the RLU (Time 80.796 s) was 695.956 RLU, the RLU (Time 82.796 s) was 687.252 RLU and the RLU (Time 84.796 s) was 702.818 RLU. For the same compound, the RLU (Time 86.796 s) was 660.013 RLU, the RLU (Time 88.796 s) was 675.614 RLU and the RLU (Time 90.796 s) was 671.255 RLU. The RLU (Time 92.796 s) was 645.369 RLU, the RLU (Time 94.796 s) was 658.13 RLU and the RLU (Time 96.796 s) was 614.664 RLU. It also gave an RLU (Time 98.796 s) of 601.791 RLU, an RLU (Time 100.796 s) of 605.799 RLU and an RLU (Time 102.796 s) of 574.755 RLU. For the same compound, the RLU (Time 104.796 s) was 579.697 RLU, the RLU (Time 106.796 s) was 554.874 RLU and the RLU (Time 108.796 s) was 536.028 RLU. It also gave an RLU (Time 110.796 s) of 503.66 RLU, an RLU (Time 112.796 s) of 530.288 RLU and an RLU (Time 114.796 s) of 510.693 RLU. For the same compound, the RLU (Time 116.796 s) was 515.676 RLU, the RLU (Time 118.796 s) was 477.82 RLU and the RLU (Time 120.796 s) was 483.731 RLU. For the same compound, the RLU (Time 122.796 s) was 479.051 RLU, the RLU (Time 124.796 s) was 471.711 RLU and the RLU (Time 126.796 s) was 440.735 RLU. It also gave an RLU (Time 128.796 s) of 427.776 RLU, an RLU (Time 130.796 s) of 428.214 RLU and an RLU (Time 132.796 s) of 399.927 RLU. It also gave an RLU (Time 134.796 s) of 369.335 RLU, an RLU (Time 136.796 s) of 379.68 RLU and an RLU (Time 137.562 s) of 368.206 RLU. It also gave an RLU (Time 143.562 s) of 326.335 RLU, an RLU (Time 149.562 s) of 297.638 RLU and an RLU (Time 155.562 s) of 268.743 RLU. The RLU (Time 161.562 s) was 228.213 RLU, the RLU (Time 167.562 s) was 217.461 RLU and the RLU (Time 173.562 s) was 182.798 RLU. For the same compound, the RLU (Time 179.562 s) was 176.247 RLU, the RLU (Time 185.562 s) was 110.643 RLU and the RLU (Time 191.562 s) was 119.586 RLU. The RLU (Time 197.562 s) was 108.976 RLU, the RLU (Time 203.562 s) was 106.514 RLU and the RLU (Time 209.562 s) was 78.0739 RLU. For the same compound, the RLU (Time 215.562 s) was 68.108 RLU, the RLU (Time 221.562 s) was 58.6538 RLU and the RLU (Time 227.562 s) was 6.904 RLU. It also gave an RLU (Time 233.562 s) of -20.3665 RLU, an RLU (Time 239.562 s) of 5.663 RLU and an RLU (Time 245.562 s) of 6.786 RLU. The RLU (Time 293.562 s) was -10.9022 RLU, the RLU (Time 299.562 s) was -34.1549 RLU and the RLU (calcium trace, sheet TAS2R1, Time 305.562 s) was -13.9937 RLU. The RLU (calcium trace, sheet TAS2R1, Time 311.562 s) was -29.8879 RLU, the RLU (calcium trace, sheet TAS2R1, Time 317.562 s) was -12.8001 RLU and the RLU (calcium trace, sheet TAS2R1, Time 323.562 s) was -27.2317 RLU. It also gave an RLU (calcium trace, sheet TAS2R1, Time 329.562 s) of -32.4678 RLU, an RLU (calcium trace, sheet TAS2R1, Time 335.562 s) of -20.5128 RLU and an RLU (calcium trace, sheet TAS2R1, Time 341.562 s) of -18.5874 RLU. It also gave an RLU (calcium trace, sheet TAS2R1, Time 347.562 s) of -51.1709 RLU, an RLU (calcium trace, sheet TAS2R1, Time 353.562 s) of -49.428 RLU and an RLU (calcium trace, sheet TAS2R1, Time 359.562 s) of -15.7961 RLU. For the same compound, the “Activation threshold concentration TAS2R1” value (lowest concentration with significantly increased fluorescence vs empty vector (p < 0.01)) was 100 µM and 100.00 µM.
